Assay results from the supplement of paper PMC10307832.

Key:
Experiment in all cases: relative viability (nuclei count vs DMSO), 5 days (fraction); higher = more cells survive
[1] = compound: C1CNCCC1C2=CC(=NN2)C3=CC=NC=C3 + CC(=O)Nc1cccc(-n2c(=O)n(C3CC3)c(=O)c3c(Nc4ccc(I)cc4F)n(C)c(=O)c(C)c32)c1 [Trametinib] (partner 0.02 µM)
In short: (§1)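 After 5 days of treatment, lung cancer cells in 1536-well plates were fixed and stained in a single step (final 0.05% Triton X-100, 1% formaldehyde, 1 ug/ml Hoechst) and their nuclei counted on 4× images. Treatment had been applied by pin tool the day after seeding as one drug alone or as a fixed anchor-drug dose with five library-drug doses (not always all listed) in √10 steps. Relative viability is the nuclei count of treated wells divided by that of vehicle wells, and values are medians of duplicate plates.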

[2] = compound: C1CNCCC1C2=CC(=NN2)C3=CC=NC=C3 + CS(=O)(=O)N1CCN(Cc2cc3nc(-c4cccc5[nH]ncc45)nc(N4CCOCC4)c3s2)CC1 [Pictilisib] (partner 1 µM)
In short: as §1

[3] = compound: C[C@@H](N)c1ccc(C(=O)Nc2ccnc3[nH]ccc23)cc1 + Cc1nc(NC(=O)N2CCC[C@H]2C(N)=O)sc1-c1ccnc(C(C)(C)C(F)(F)F)c1 [Alpelisib] (partner 2 µM)
In short: as §1

Tanzisertib + Phenformin = compound: O[C@H]1CC[C@H](Nc2ncc3nc(Nc4c(F)cc(F)cc4F)n([C@H]4CCOC4)c3n2)CC1 [Tanzisertib] + N=C(N)NC(=N)NCCc1ccccc1 [Phenformin] (partner 250 µM)
In short: as §1

Work on LXF-289 yielded a relative viability ([1]; first compound 0.08 µM) of 0.658, a relative viability ([1]; first compound 0.8 µM) of 0.768 and a relative viability ([1]; first compound 2.53 µM) of 0.653. The relative viability ([1]; first compound 8 µM) was 0.706, the relative viability ([2]; first compound 0.08 µM) was 0.776 and the relative viability ([2]; first compound 0.8 µM) was 0.845. It also gave a relative viability ([2]; first compound 2.53 µM) of 0.823, a relative viability ([2]; first compound 8 µM) of 0.829 and a relative viability ([3]; first compound 0.04 µM) of 1.12. The relative viability ([3]; first compound 0.1265 µM) was 1.04, the relative viability ([3]; first compound 0.4 µM) was 1.04 and the relative viability ([3]; first compound 1.265 µM) was 1.07. For the same cell line, the relative viability ([3]; first compound 4 µM) was 0.85, the relative viability (Tanzisertib + Phenformin; first compound 0.08 µM) was 0.55 and the relative viability (Tanzisertib + Phenformin; first compound 0.253 µM) was 0.532. For the same cell line, the relative viability (Tanzisertib + Phenformin; first compound 0.8 µM) was 0.519, the relative viability (Tanzisertib + Phenformin; first compound 2.53 µM) was 0.545 and the relative viability (Tanzisertib + Phenformin; first compound 8 µM) was 0.535.
In the case of NCI-H23, the relative viability ([1]; first compound 0.08 µM) is reported as 0.372, the relative viability ([1]; first compound 2.53 µM) is reported as 0.444 and the relative viability ([1]; first compound 8 µM) is reported as 0.371. For the same cell line, the relative viability ([2]; first compound 0.08 µM) was 0.447, the relative viability ([2]; first compound 0.8 µM) was 0.533 and the relative viability ([2]; first compound 2.53 µM) was 0.648. For the same cell line, the relative viability ([2]; first compound 8 µM) was 0.601, the relative viability ([3]; first compound 0.04 µM) was 0.802 and the relative viability ([3]; first compound 0.1265 µM) was 0.766. For the same cell line, the relative viability ([3]; first compound 0.4 µM) was 0.883, the relative viability ([3]; first compound 4 µM) was 0.608 and the relative viability (Tanzisertib + Phenformin; first compound 0.08 µM) was 0.808. The relative viability (Tanzisertib + Phenformin; first compound 0.253 µM) was 0.808, the relative viability (Tanzisertib + Phenformin; first compound 0.8 µM) was 0.84 and the relative viability (Tanzisertib + Phenformin; first compound 2.53 µM) was 0.795. It also gave a relative viability (Tanzisertib + Phenformin; first compound 8 µM) of 0.668.
In the case of NCI-H322M, the relative viability ([1]; first compound 0.08 µM) is reported as 0.511, the relative viability ([1]; first compound 0.8 µM) is reported as 0.533 and the relative viability ([1]; first compound 2.53 µM) is reported as 0.516. The relative viability ([1]; first compound 8 µM) was 0.575, the relative viability ([2]; first compound 0.08 µM) was 0.423 and the relative viability ([2]; first compound 0.8 µM) was 0.482. It also gave a relative viability ([2]; first compound 2.53 µM) of 0.523, a relative viability ([2]; first compound 8 µM) of 0.479 and a relative viability ([3]; first compound 0.04 µM) of 0.909. The relative viability ([3]; first compound 0.1265 µM) was 0.838, the relative viability ([3]; first compound 0.4 µM) was 0.935 and the relative viability ([3]; first compound 4 µM) was 0.969. It also gave a relative viability (Tanzisertib + Phenformin; first compound 0.08 µM) of 0.788, a relative viability (Tanzisertib + Phenformin; first compound 0.253 µM) of 0.728 and a relative viability (Tanzisertib + Phenformin; first compound 0.8 µM) of 0.832. The relative viability (Tanzisertib + Phenformin; first compound 2.53 µM) was 0.81 and the relative viability (Tanzisertib + Phenformin; first compound 8 µM) was 0.721.
NCI-H358 gave a relative viability ([1]; first compound 0.08 µM) of 0.12, a relative viability ([1]; first compound 0.8 µM) of 0.128 and a relative viability ([1]; first compound 2.53 µM) of 0.136. It also gave a relative viability ([1]; first compound 8 µM) of 0.169, a relative viability ([2]; first compound 0.08 µM) of 0.323 and a relative viability ([2]; first compound 0.8 µM) of 0.376. The relative viability ([2]; first compound 2.53 µM) was 0.357, the relative viability ([2]; first compound 8 µM) was 0.422 and the relative viability ([3]; first compound 0.04 µM) was 0.846. It also gave a relative viability ([3]; first compound 0.1265 µM) of 0.739, a relative viability ([3]; first compound 0.4 µM) of 0.821 and a relative viability ([3]; first compound 1.265 µM) of 0.767. The relative viability ([3]; first compound 4 µM) was 0.73, the relative viability (Tanzisertib + Phenformin; first compound 0.08 µM) was 0.361 and the relative viability (Tanzisertib + Phenformin; first compound 0.253 µM) was 0.318. It also gave a relative viability (Tanzisertib + Phenformin; first compound 0.8 µM) of 0.322, a relative viability (Tanzisertib + Phenformin; first compound 2.53 µM) of 0.271 and a relative viability (Tanzisertib + Phenformin; first compound 8 µM) of 0.212.
NCI-H441 was tested, and the relative viability ([1]; first compound 0.08 µM) was 0.425, the relative viability ([1]; first compound 0.8 µM) was 0.469 and the relative viability ([1]; first compound 2.53 µM) was 0.555. It also gave a relative viability ([1]; first compound 8 µM) of 0.461, a relative viability ([2]; first compound 0.08 µM) of 0.462 and a relative viability ([2]; first compound 0.8 µM) of 0.455. The relative viability ([2]; first compound 2.53 µM) was 0.428, the relative viability ([2]; first compound 8 µM) was 0.491 and the relative viability ([3]; first compound 0.04 µM) was 0.715. For the same cell line, the relative viability ([3]; first compound 0.1265 µM) was 0.602, the relative viability ([3]; first compound 0.4 µM) was 0.641 and the relative viability ([3]; first compound 1.265 µM) was 0.669. It also gave a relative viability ([3]; first compound 4 µM) of 0.919, a relative viability (Tanzisertib + Phenformin; first compound 0.08 µM) of 1.12 and a relative viability (Tanzisertib + Phenformin; first compound 0.253 µM) of 0.723. It also gave a relative viability (Tanzisertib + Phenformin; first compound 0.8 µM) of 0.725, a relative viability (Tanzisertib + Phenformin; first compound 2.53 µM) of 0.853 and a relative viability (Tanzisertib + Phenformin; first compound 8 µM) of 0.817.
NCI-H522 was tested, and the relative viability ([1]; first compound 0.08 µM) was 0.764, the relative viability ([1]; first compound 0.8 µM) was 0.716 and the relative viability ([1]; first compound 2.53 µM) was 0.918. For the same cell line, the relative viability ([1]; first compound 8 µM) was 0.744, the relative viability (Tanzisertib + Phenformin; first compound 0.08 µM) was 0.783 and the relative viability (Tanzisertib + Phenformin; first compound 0.253 µM) was 0.57. It also gave a relative viability (Tanzisertib + Phenformin; first compound 0.8 µM) of 0.667, a relative viability (Tanzisertib + Phenformin; first compound 2.53 µM) of 0.677 and a relative viability (Tanzisertib + Phenformin; first compound 8 µM) of 0.572.
For NCI-H1299, the relative viability ([2]; first compound 0.08 µM) was 0.711, the relative viability ([2]; first compound 0.8 µM) was 0.886 and the relative viability ([2]; first compound 2.53 µM) was 0.772. For the same cell line, the relative viability ([2]; first compound 8 µM) was 0.819, the relative viability ([3]; first compound 0.04 µM) was 1.05 and the relative viability ([3]; first compound 0.1265 µM) was 1.04. The relative viability ([3]; first compound 0.4 µM) was 0.997, the relative viability ([3]; first compound 1.265 µM) was 0.894 and the relative viability ([3]; first compound 4 µM) was 0.926.
In the case of NCI-H1563, the relative viability ([2]; first compound 0.08 µM) is reported as 0.575, the relative viability ([2]; first compound 0.8 µM) is reported as 0.662 and the relative viability ([2]; first compound 2.53 µM) is reported as 0.592. For the same cell line, the relative viability ([2]; first compound 8 µM) was 0.611, the relative viability ([3]; first compound 0.04 µM) was 0.958 and the relative viability ([3]; first compound 0.1265 µM) was 0.995. The relative viability ([3]; first compound 0.4 µM) was 0.985, the relative viability ([3]; first compound 1.265 µM) was 0.971 and the relative viability ([3]; first compound 4 µM) was 0.918. The relative viability (Tanzisertib + Phenformin; first compound 0.08 µM) was 0.662, the relative viability (Tanzisertib + Phenformin; first compound 0.253 µM) was 0.688 and the relative viability (Tanzisertib + Phenformin; first compound 0.8 µM) was 0.654. The relative viability (Tanzisertib + Phenformin; first compound 2.53 µM) was 0.681 and the relative viability (Tanzisertib + Phenformin; first compound 8 µM) was 0.624.
Cell Line NCI-H1623 has a relative viability (Tanzisertib + Phenformin; first compound 0.08 µM) of 0.587, a relative viability (Tanzisertib + Phenformin; first compound 0.253 µM) of 0.574 and a relative viability (Tanzisertib + Phenformin; first compound 0.8 µM) of 0.639. The relative viability (Tanzisertib + Phenformin; first compound 2.53 µM) was 0.572 and the relative viability (Tanzisertib + Phenformin; first compound 8 µM) was 0.551.
NCI-H1648 showed a relative viability ([1]; first compound 0.08 µM) of 0.464, a relative viability ([1]; first compound 0.8 µM) of 0.483 and a relative viability ([1]; first compound 8 µM) of 0.516.
For NCI-H1650, the relative viability ([1]; first compound 0.08 µM) was 0.506, the relative viability ([1]; first compound 0.8 µM) was 0.558 and the relative viability ([1]; first compound 2.53 µM) was 0.569. For the same cell line, the relative viability ([1]; first compound 8 µM) was 0.578, the relative viability ([2]; first compound 0.08 µM) was 0.353 and the relative viability ([2]; first compound 0.8 µM) was 0.701. For the same cell line, the relative viability ([2]; first compound 2.53 µM) was 0.632, the relative viability ([2]; first compound 8 µM) was 0.63 and the relative viability (Tanzisertib + Phenformin; first compound 0.08 µM) was 0.317. For the same cell line, the relative viability (Tanzisertib + Phenformin; first compound 0.253 µM) was 0.425, the relative viability (Tanzisertib + Phenformin; first compound 0.8 µM) was 0.407 and the relative viability (Tanzisertib + Phenformin; first compound 2.53 µM) was 0.307. For the same cell line, the relative viability (Tanzisertib + Phenformin; first compound 8 µM) was 0.314.
NCI-H1703 showed a relative viability ([2]; first compound 0.08 µM) of 0.253, a relative viability ([2]; first compound 0.8 µM) of 0.253 and a relative viability ([2]; first compound 2.53 µM) of 0.21. For the same cell line, the relative viability ([2]; first compound 8 µM) was 0.22, the relative viability ([3]; first compound 0.04 µM) was 0.332 and the relative viability ([3]; first compound 0.1265 µM) was 0.382. For the same cell line, the relative viability ([3]; first compound 0.4 µM) was 0.345 and the relative viability ([3]; first compound 4 µM) was 0.317.
Cell Line NCI-H2342 has a relative viability ([1]; first compound 0.08 µM) of 0.716, a relative viability ([1]; first compound 0.8 µM) of 0.798 and a relative viability ([1]; first compound 2.53 µM) of 0.794. The relative viability ([1]; first compound 8 µM) was 1.04, the relative viability (Tanzisertib + Phenformin; first compound 0.08 µM) was 0.618 and the relative viability (Tanzisertib + Phenformin; first compound 0.253 µM) was 0.643. The relative viability (Tanzisertib + Phenformin; first compound 0.8 µM) was 0.57, the relative viability (Tanzisertib + Phenformin; first compound 2.53 µM) was 0.557 and the relative viability (Tanzisertib + Phenformin; first compound 8 µM) was 0.532.
For SW 900, the relative viability ([1]; first compound 0.08 µM) was 0.751, the relative viability ([1]; first compound 2.53 µM) was 0.901 and the relative viability ([1]; first compound 8 µM) was 0.836. The relative viability (Tanzisertib + Phenformin; first compound 0.08 µM) was 0.725, the relative viability (Tanzisertib + Phenformin; first compound 0.253 µM) was 0.601 and the relative viability (Tanzisertib + Phenformin; first compound 0.8 µM) was 0.749. For the same cell line, the relative viability (Tanzisertib + Phenformin; first compound 2.53 µM) was 0.587 and the relative viability (Tanzisertib + Phenformin; first compound 8 µM) was 0.512.
